The values below come from ChEMBL document CHEMBL5053535, “Design, synthesis and biological evaluation of novel aminopyrazole- and 7-azaindole-based Nek1 inhibitors and their effects on zebrafish kidney development” (Bioorg Med Chem Lett, 2021).

In brackets after ≈: the same amount, converted by molar mass.

For data set [1], the species on record is Danio rerio. Put plainly: Toxicity in wild type zebra fish model of polycystic kidney disease assessed as increase in fluorescence intensity at 0.5 uM incubated for 48 hrs in presence of N-phenyl thiourea further treated with PT-yellow for 20 mins followed by dye washout and incubated in solution containing compound for 96 hrs by fluorescence imaging analysis. It counts as organism-based. To be noted: zebrafish, in vivo.

Data set [2] is described as follows: Toxicity in zebra fish embryos assessed as lethality at 2.5 uM measured after 24 hrs relative to control. It is filed as organism-based, Danio rerio. To be noted: zebrafish, in vivo, read-out: Activity.
The target in data set [3] is T1, Serine/threonine-protein kinase Nek5 (Homo sapiens) (UniProt Q6P3R8).
T1 sequence (whole entry): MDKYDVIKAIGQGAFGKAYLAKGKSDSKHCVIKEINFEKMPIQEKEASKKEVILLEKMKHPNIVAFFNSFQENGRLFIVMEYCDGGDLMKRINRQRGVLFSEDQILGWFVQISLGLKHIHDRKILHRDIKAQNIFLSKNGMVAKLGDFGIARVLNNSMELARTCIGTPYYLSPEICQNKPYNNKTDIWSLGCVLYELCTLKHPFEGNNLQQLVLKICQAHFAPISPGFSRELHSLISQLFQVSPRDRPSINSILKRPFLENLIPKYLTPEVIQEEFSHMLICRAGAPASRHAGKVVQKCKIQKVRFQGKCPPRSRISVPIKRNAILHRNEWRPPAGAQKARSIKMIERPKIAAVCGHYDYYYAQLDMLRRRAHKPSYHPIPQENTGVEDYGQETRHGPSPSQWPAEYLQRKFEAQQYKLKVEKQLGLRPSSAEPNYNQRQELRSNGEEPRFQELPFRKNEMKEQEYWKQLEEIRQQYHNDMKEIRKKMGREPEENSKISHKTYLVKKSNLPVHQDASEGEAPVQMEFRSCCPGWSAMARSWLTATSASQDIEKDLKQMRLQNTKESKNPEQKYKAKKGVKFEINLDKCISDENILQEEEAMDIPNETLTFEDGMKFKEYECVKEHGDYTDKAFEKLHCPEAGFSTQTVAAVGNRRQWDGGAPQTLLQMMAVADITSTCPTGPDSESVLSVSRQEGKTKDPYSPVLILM
Put plainly: Inhibition of human recombinant NEK5 assessed as residual activity at 1 uM pretreated for 20 mins followed by [33P]-ATP addition measured after 120 mins by radiometric hotspot kinase assay relative to control. To be noted: time 140.0 min.

A short description of data set [4]: Permeability across apical to basolateral side in human Caco-2 cells at pH 6.5 at 1 uM. It counts as ADME, cell-based. To be noted: Caco-2, pH 6.5, read-out: permeability. (Caco-2 monolayers are a common model of the intestinal barrier.)
The target in data set [5] is Wee1-like protein kinase (Homo sapiens) (UniProt P30291). Put plainly: Inhibition of human recombinant full length WEE1 expressed in insect cells using MBP as substrate assessed as residual activity at 1 uM pretreated for 20 mins followed by [33P]-ATP addition measured after 120 mins by radiometric hotspot kinase assay relative to control. To be noted: time 140.0 min.

Data set [6] is filed under the species Danio rerio. Put plainly: Toxicity in wild type zebra fish model of polycystic kidney disease assessed as minor tubular volume expansion at 0.5 uM incubated for 48 hrs in presence of N-phenyl thiourea further treated with PT-yellow for 20 mins followed by dye washout and incubated in solution containing compound for 96 hrs by fluorescence imaging analysis. It counts as organism-based. To be noted: zebrafish, in vivo.

Data set [7] can be described thus: Permeability across basolateral to apical side in human Caco-2 cells at pH 7.4 assessed as compound recovery at 1 uM. It is filed as ADME, cell-based. To be noted: Caco-2, pH 7.4, read-out: Drug recovery.
The target in data set [8] is Cyclin-dependent kinase 2/cyclin E1 (Homo sapiens) (UniProt P24864+P24941). Put plainly: Inhibition of human recombinant full length C-terminal His6 tagged CDK2/ N-terminal GST-tagged Cyclin E expressed in baculovirus infected Sf21 insect cells using histone H1 as substrate assessed as residual activity at 1 uM pretreated for 20 mins followed by [33P]-ATP addition measured after 120 mins by radiometric hotspot kinase assay relative to control. To be noted: time 140.0 min.

Data set [9] concerns the target T2, Serine/threonine-protein kinase Chk1 (Homo sapiens) (UniProt O14757).
T2 sequence (whole entry): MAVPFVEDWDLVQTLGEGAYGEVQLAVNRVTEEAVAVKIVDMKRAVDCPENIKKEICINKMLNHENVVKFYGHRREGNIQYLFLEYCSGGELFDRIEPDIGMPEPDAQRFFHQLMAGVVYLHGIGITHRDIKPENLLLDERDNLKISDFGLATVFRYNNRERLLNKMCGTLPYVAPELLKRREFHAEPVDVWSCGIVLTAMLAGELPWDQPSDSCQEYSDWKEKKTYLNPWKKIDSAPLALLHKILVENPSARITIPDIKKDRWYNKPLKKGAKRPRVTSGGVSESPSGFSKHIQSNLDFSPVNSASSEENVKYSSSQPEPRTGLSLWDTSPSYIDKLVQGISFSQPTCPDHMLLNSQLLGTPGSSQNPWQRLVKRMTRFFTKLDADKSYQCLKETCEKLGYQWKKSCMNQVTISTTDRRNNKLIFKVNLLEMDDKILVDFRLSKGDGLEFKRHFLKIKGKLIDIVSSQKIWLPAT
Put plainly: Inhibition of human recombinant full length N-terminal His tagged CHK1 expressed in baculovirus infected Sf21 insect cells using CHKtide as substrate assessed as residual activity at 1 uM pretreated for 20 mins followed by [33P]-ATP addition measured after 120 mins by radiometric hotspot kinase assay relative to control. To be noted: time 140.0 min.

For data set [10], the species on record is Danio rerio. Put plainly: Toxicity in zebra fish embryos assessed as phenotype changes at 0.01 to 2.5 uM measured after 96 hrs. It is filed as organism-based. To be noted: zebrafish, in vivo, dose 0.01-2.5 µM.
Data set [11] in a line: Solubility of the compound in E3 medium with 0.2% DMSO by DAD-HPLC based shake flask method. It counts as physicochemical.

Wee1-like protein kinase (Homo sapiens), sequence (P30291 whole entry, looked up): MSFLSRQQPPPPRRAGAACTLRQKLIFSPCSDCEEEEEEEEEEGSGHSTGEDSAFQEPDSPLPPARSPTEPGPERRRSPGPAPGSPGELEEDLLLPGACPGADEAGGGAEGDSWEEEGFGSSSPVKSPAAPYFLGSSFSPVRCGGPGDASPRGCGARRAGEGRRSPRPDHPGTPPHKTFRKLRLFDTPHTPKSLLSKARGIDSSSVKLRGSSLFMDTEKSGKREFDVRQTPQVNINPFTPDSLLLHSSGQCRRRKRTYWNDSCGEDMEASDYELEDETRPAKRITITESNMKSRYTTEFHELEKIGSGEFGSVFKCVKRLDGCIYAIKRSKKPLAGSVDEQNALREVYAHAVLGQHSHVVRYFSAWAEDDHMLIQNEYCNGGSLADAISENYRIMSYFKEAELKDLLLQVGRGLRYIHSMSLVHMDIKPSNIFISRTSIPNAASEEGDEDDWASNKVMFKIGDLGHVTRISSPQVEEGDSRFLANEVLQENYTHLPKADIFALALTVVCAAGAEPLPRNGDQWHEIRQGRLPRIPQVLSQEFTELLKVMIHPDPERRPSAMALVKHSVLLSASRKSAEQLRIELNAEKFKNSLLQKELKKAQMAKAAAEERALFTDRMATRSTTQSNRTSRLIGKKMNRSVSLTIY

Turning to `COC(=O)c1cccc(-c2cnc3[nH]cc(-c4cccnc4)c3c2)c1`, the Activity entry in data set [1] was “Toxic”; in data set [3], 10.4%; in data set [5] it was 82.1%; in data set [6], “Toxic”; in data set [8], 1.6%; in [9], 48.5%. Moreover, in data set [10], the Activity result is given as “Non-Toxic”. The mortality at 24 h, 2.5 µM in data set [2] stood at 100%. Besides, the Papp A→B at 1 µM in [4] amounted to 0.13 ×10⁻⁶ cm/s. Also, the recovery at 1 µM in data set [7] amounted to 29.6%. Also, the concentration in solution in data set [11] (solubility) was 1.9 µM (≈ 0.626 µg/mL).
